pIC50: −log10 of the molar value.
Key:
Homo sapiens = species on record: Homo sapiens; experiment: Selectivity ratio of IC50 for human recombinant arginase 2 H331 to I354 deletion mutant expressed in Escherichia coli BL21 (DE3) to IC50 for human recombinant arginase 1 expressed in Escherichia coli BL21 (DE3)
Arginase-1 = target: T1, Arginase-1 (Homo sapiens, UniProt P05089); experiment: Inhibition of human recombinant arginase 1 expressed in Escherichia coli BL21 (DE3) assessed as reduction in urea production using L-arginine as substrate in presence of MnSO4 incubated for 60 mins by o-phthaldialdehyde/N-(1-naphthyl)ethylene-diamine dihydrochloride reagent based colorimetric assay; details: for pIC50: read-out: IC50
T1 sequence (P05089 whole entry): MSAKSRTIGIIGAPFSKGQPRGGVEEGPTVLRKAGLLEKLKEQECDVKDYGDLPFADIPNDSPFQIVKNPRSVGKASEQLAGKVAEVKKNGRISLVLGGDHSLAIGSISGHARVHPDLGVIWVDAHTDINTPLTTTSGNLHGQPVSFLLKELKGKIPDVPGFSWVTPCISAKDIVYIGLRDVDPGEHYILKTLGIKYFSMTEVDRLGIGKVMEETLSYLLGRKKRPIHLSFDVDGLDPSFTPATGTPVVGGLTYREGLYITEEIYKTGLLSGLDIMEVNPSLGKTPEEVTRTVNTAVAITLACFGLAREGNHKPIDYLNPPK

[1] = Inhibition of human recombinant arginase 2 H331 to I354 deletion mutant expressed in Escherichia coli BL21 (DE3) assessed as reduction in urea production using L-arginine as substrate in presence of MnSO4 incubated for 60 mins by colorimetric assay; details: for pIC50: read-out: IC50
[2] = target: T2, Arginase-1 (Homo sapiens) (UniProt P05089); experiment: Potency index, ratio of ABH IC50 to test compound IC50 for human recombinant arginase 1 expressed in Escherichia coli BL21 (DE3)
T2 sequence (whole entry): T1 sequence (P05089 whole entry)

Row | Compound | Ratio IC50 (Homo sapiens) | pIC50 (Arginase-1) | pIC50 [1] | IC50 (Arginase-1) | IC50 [1] | Ratio IC50 [2]
1 | C[C@@H](N)CN1C[C@H](CCCB(O)O)[C@](N)(C(=O)O)C1 | 3 to 5 | 7.80 | 7.43 |  |  | 
2 | N[C@@]1(C(=O)O)CN(C[C@H]2CCCCN2)C[C@@H]1CCCB(O)O | 3 to 5 | 8.59 | 7.85 |  |  | 
3 | N[C@@]1(C(=O)O)CNC[C@@H]1CCCB(O)O | 3 to 5 | 6.96 | 6.36 |  |  | 
4 | Cn1ccnc1CN1C[C@H](CCCB(O)O)[C@](N)(C(=O)O)C1 | 3 to 5 | 7.00 | 6.48 |  |  | 
5 | CC(C)CN1C[C@H](CCCB(O)O)[C@](N)(C(=O)O)C1 | 3 to 5 | 6.41 | 5.79 |  |  | 
6 | N[C@@]1(C(=O)O)CN(Cc2cncs2)C[C@@H]1CCCB(O)O | 3 to 5 | 6.44 | 6.07 |  |  | 
7 | N[C@@]1(C(=O)O)CN(C[C@@H]2CCCN2)C[C@@H]1CCCB(O)O | 3 to 5 | 7.96 | 7.33 |  |  | 
8 | N[C@@]1(C(=O)O)CN(Cc2ccccn2)C[C@@H]1CCCB(O)O | 3 to 5 | 6.42 | 5.90 |  |  | 
9 | C[C@H](N)CN1C[C@H](CCCB(O)O)[C@](N)(C(=O)O)C1 | 2 to 5 | 8.11 | 7.80 |  |  | 
10 | N[C@@]1(C(=O)O)CN(Cc2ccncc2)C[C@@H]1CCCB(O)O | 3 to 5 | 6.22 | 5.73 |  |  | 
11 | N=C(NO)NCC[C@H](N)C(=O)O [NOR-NOHA] |  |  | 5.90 |  |  | 
12 | N[C@@]1(C(=O)O)CN(Cc2ccccc2)C[C@@H]1CCCB(O)O | 3 to 5 | 6.52 | 5.81 |  |  | 
13 | N[C@@H](Cc1ccccc1)CN1C[C@H](CCCB(O)O)[C@](N)(C(=O)O)C1 | 3 to 5 | 8.89 | 8.09 |  |  | 1190
14 | Cc1nn(C)c(C)c1CN1C[C@H](CCCB(O)O)[C@](N)(C(=O)O)C1 | 3 to 5 | 6.47 | 5.65 |  |  | 
15 | NC1(C(=O)O)CCCC1CCCB(O)O (racemic; 9) |  | 4.32 | 4.10 |  |  | 
16 | NC1(C(=O)O)CCCC1CCCB(O)O (racemic; 8) [listing 2 of 2 here] |  | 6.42 | 5.89 |  |  | 

Continued, values first:

Row | Ratio IC50 (Homo sapiens) | pIC50 (Arginase-1) | pIC50 [1] | IC50 (Arginase-1) | IC50 [1] | Ratio IC50 [2] | Compound
17 | 3 to 5 |  |  |  |  |  | NC1(C(=O)O)CCCC1CCCB(O)O (racemic; 8) [listing 1 of 2 here]
18 | 3 to 5 | 6.17 | 5.67 |  |  |  | N[C@@]1(C(=O)O)CN(Cc2cccc(F)n2)C[C@@H]1CCCB(O)O
19 |  |  |  | Not Active | Not Active |  | N[C@]1(C(=O)O)CCC[C@H]1CCCB(O)O
20 | 3 to 5 | 7.52 | 7.02 |  |  |  | N[C@@]1(C(=O)O)CN(C[C@@H]2CCCCN2)C[C@@H]1CCCB(O)O
21 | 3 to 5 | 8.00 | 7.57 |  |  |  | N[C@H](Cc1ccccc1)CN1C[C@H](CCCB(O)O)[C@](N)(C(=O)O)C1
22 | 3 to 5 | 6.68 | 6.20 |  |  |  | N[C@@]1(C(=O)O)CCC[C@@H]1CCCB(O)O
23 | 3 to 5 | 6.33 | 5.86 |  |  |  | N[C@@]1(C(=O)O)CN(Cc2cccnc2)C[C@@H]1CCCB(O)O
24 | 3 to 5 | 6.40 | 5.66 |  |  |  | Cc1[nH]ncc1CN1C[C@H](CCCB(O)O)[C@](N)(C(=O)O)C1
25 | 3 to 5 | 8.00 | 7.57 |  |  |  | N[C@@]1(C(=O)O)CN(C[C@@H]2COCCN2)C[C@@H]1CCCB(O)O
26 | 3 to 5 | 5.81 | 5.59 |  |  |  | N[C@@H](CCCCB(O)O)C(=O)O
27 | 3 to 5 | 8.60 | 8.02 |  |  |  | N[C@H](CN1C[C@H](CCCB(O)O)[C@](N)(C(=O)O)C1)c1ccccc1
28 | 3 to 5 | 7.72 | 7.19 |  |  |  | N[C@@]1(C(=O)O)CN(C[C@H]2COCCN2)C[C@@H]1CCCB(O)O
29 | 3 to 5 | 8.00 | 7.43 |  |  |  | N[C@@]1(C(=O)O)CN(C[C@H]2CCCN2)C[C@@H]1CCCB(O)O
30 | 3 to 5 | 7.74 | 7.21 |  |  |  | N[C@@H](CN1C[C@H](CCCB(O)O)[C@](N)(C(=O)O)C1)c1ccccc1

Reference: ChEMBL document CHEMBL4334476 (J Med Chem, 2019)
